In patent publication US20230075937A1, “METHODS FOR STRENGTHENING AND REPAIRING HAIR” (Living Proof, Inc., priority 2021, published 2023):

Key:
Design in all cases: species or system human
[1] = Differential scanning calorimetry (DSC) of hair, denaturation temperature (Td); conditions: for hair denaturation temperature: post-treatment pH 2, 5 min
Protocol: To explore treatment with PA and PA-GL, studies were performed using 3× bleached hair as a damaged hair model (each bleaching was done with a mixture of Bleaching powder (BW2) and 40V clear developer at 1:2 ratio, for 1 hour at room temperature). […] Differential scanning calorimetry (DSC) was performed on tresses at wet stage to determine the effect of phytic acid treatment on hair denaturation temperatures (Td). For wet stage DSC, a hair sample of 3-5 mg in 50 μL Deionized water sealed and equilibrated (overnight) in a stainless steel pressure resistant high-volume pan is heated from 25° C. to 180° C. at a 5 ° C./min heating rate. […] The heat damaged hair was prepared by subjecting virgin brown hair to 4 cycles of heat treatments. In each cycle, hair was treated with Deionized water (1 mL per 1.5 g of hair), massaged for 30 s followed by heat treatment (blow dry until dry at medium heat setting, flat iron at 450° F. for 10 strokes at a rate of 10 seconds per stroke from root to tip). At the end of 4 cycles of heat treatments, the hair tress is dialyzed overnight in Deionized water and air dried before DSC testing. The PA treatment on the heat damaged hair was performed using a 2 wt % PA aqueous solution at pH 4.5 for 30 min followed by blow dry. […] The heat protection benefit provided by PA using DSC was also explored, for which virgin hair with or without PA pre-treatment was subjected to 3 cycles of heat treatments. A virgin control sample was also added for comparison, which was prepared by treating the virgin brown hair with Deionized water (1 mL per 1.5 g of hair), massaged 30 seconds and air dried. For each heat treatment cycle, hair sample was blow dried until dry at medium heat setting, and flat ironed at 450° F. for 10 strokes at a rate of 10 seconds per stroke from root to tip. After three cycles of heat treatments, hair samples were dialyzed overnight in DI water and air dried before DSC testing. […] To explore strengthening benefits of PA in a hair care formulation, a PA formulation containing 0.75 wt % PA at pH 4-4.5 was used as an example. The 3× bleached hair was treated with 0.25 g of the PA formulation for 10 min followed by blow dry. Differential scanning calorimetry was performed on tresses to determine the effect of phytic acid treatment on hair denaturation temperatures (Td). […] The heat damaged hair was prepared by subjecting virgin brown hair to 4 cycles of heat treatments. In each cycle, hair was treated with Deionized water (1 mL per 1.5 g of hair), massaged for 30 s followed by heat treatment (blow dry until dry at medium heat setting, flat iron at 450° F. for 10 strokes at a rate of 10 seconds per stroke from root to tip). At the end of 4 cycles of the heat treatments, the hair tress is dialyzed overnight in Deionized water and air dried before DSC testing. […] Furthermore, the capability of PA formulation to protect hair from future chemical treatments (bleaching and coloring) was explored. In this study, two sets of treatments were performed and for each set three replicates were included. In Set I, a virgin tress was bleached once (1st bleach), followed by 12 cycles of shampoo and conditioner washes, then another bleach (2nd bleach). In Set II, similar bleaching and washing process was taken except that the tress was treated with PA formulation after the 1st bleach and 3rd, 6th, 9th, and 12th wash. In both bleaching steps, hair was treated with a mixture of BW2 bleaching powder and clear 30 V developer (1:1.5 ratio, 5 g per 1.5 g of hair) for 20 min under heat (high heat setting in a Belvedere hooded dryer), followed by 30 s water rinse and air dry at room temperature. The hair denaturation temperature (Td) was collected after each bleach treatment and every 3 washing cycles. […] Heat protection provided by the PA formulation using DSC was also explored. Here, three groups of hair samples were compared: virgin, heat control, and PA formulation treated. […]

[2] = Modified Lowry Protein Assay, hair protein loss
Protocol: In addition, surface repair benefits from the PA or PA-GL treatments were evaluated by a protein loss assay. It is known that hair cuticle damage after various chemical treatments such as bleaching and perming results in a higher protein loss. To quantify the protein loss before and after treatments, a Modified Lowry Protein Assay was employed. In this method, a Lowry assay (Pierce Modified Lowry Protein Assay Kit, working range is at 1-1500 μg/mL) followed by absorbance measurement using UV-Visible Spectrophotometer (λmax at 740-760 nm) is used to quantify hair protein loss for a sample size of 250 mg of hair in 4 mL of deionized water.

[3] = Fracture patterns of fibers broken in Dia-stron tensile testing; conditions: 3× bleached hair; 2 wt % PA pH 4-4.5, 10 min, blow dry (virgin 34%, bleached 6%)
Protocol: Depending on the level of hair damage, hair fibers may break with very different fracture patterns when pulling to break. […] Fracture patterns of fibers broken from Dia-stron tensile testing were examined under optical microscope to understand the relationship between fracture pattern and hair damage level. […] In contrast, when the bleached hair was treated with a 2 wt % PA aqueous solution at pH 4-4.5 for 10 min, followed by blow dry, 38% smooth fractures were observed, close to that for virgin hair, indicating effective internal hair structure repair and complete restore by PA.
Hair fracture patterns of 3× bleached and PA formulation treated fibers after Dia-stron tensile testing were also examined and compared to those for virgin and bleached hair.

[4] = Relative hair diameter swelling by environmental scanning electron microscopy; conditions: 3× bleached hair; 2 wt % PA pH 4-4.5, 30 min, blow dry; 10% to 95% RH
Protocol: All measurements were carried out using a FEI Quanta 200 FEG MKII scanning electron microscope, operating at 15 kV, with relative humidity ranging from 10% to 95%. Single source virgin brown hair was bleached three times to obtain a 3× bleached hair model (each bleaching was done with a mixture of bleaching powder (BW2) and 40V clear developer at 1:2 ratio for 1 hour at room temperature, followed by 30 s water rinse and air-dry at room temperature).

[5] = High humidity test, hair tress area change; conditions: 3× bleached hair, 65% RH, vs untreated bleached hair
Protocol: In this method, hair tresses are exposed to high humidity at 65% RH at 25° C. for 30 min and the area of hair tresses before and after exposure to humidity is quantified using Image J application.

[6] = Differential wetting characterization (DWC), water contact angle
Protocol: In this method, a pair of hair fibers is mounted on an in-house built stage in a horizontal plane with a separation of ˜0.75 mm. A droplet of deionized water (1 μL) is then applied onto the fiber pair by using a micro syringe. The droplet is observed using a Nikon microscope under 5× magnification and the image is taken using the incorporated digital camera. In the image, the contact angles of the water droplet on the fiber pair are measured respectively using the Nikon Advance Research software. The relative surface hydrophobicity of the fiber pair is correlated to the resulting contact angles, of which the greater value indicates higher hydrophobicity. […]

[7] = Dia-Stron single fiber mechanical testing at wet stage
Excerpt: Additionally, the strengthening benefits of PA and PA-GL blend treatments were confirmed by Dia-Stron single fiber mechanical testing at wet stage. For wet stage single fiber method, hair fibers (≥20 fibers per treatment) at 30 mm length are fixed by 2 brass crimps at the ends and mounted on a Dia-stron tray. Initial dimension measurements are collected using a Dia-Stron FDAS770 (double ended samples, sample size of 30 mm, no of slices of 5 under one rotation per slice), followed by equilibration in Deionized water for at least 2 h prior to testing. All fiber tensile measurements are performed using a Dia-Stron MTT686/MTT690 (under 100% extension at gauge force of 2N, break threshold of 5 g, rate of 20 mm/min, maximum force of 2000 gmf and premature failure threshold of 10% strain).

[8] = 3× bleached hair, 2 wt % solution, heat styling (blow dry or flatiron)
[9] = bleached hair, PA at 2, 5 or 15 wt % in Restore Repair Leave-In conditioner, flatiron
[10] = bleached hair, treatment pH 2 to 5, flatiron
[11] = colored hair, post-treatment, blow dry
[12] = more damaged model (2× bleached at 45° C.), 2 wt % PA pH 2, 1 hour

O=P(O)(O)O[C@H]1[C@H](OP(=O)(O)O)[C@@H](OP(=O)(O)O)[C@H](OP(=O)(O)O)[C@@H](OP(=O)(O)O)[C@H]1OP(=O)(O)O [PA, phytic acid]
Td after 10 shampoo and conditioner washing cycles ([1]; 3× bleached hair treated with 2 wt % PA aqueous solution): ≥ 149 °C | hair denaturation temperature (Td) ([1]; 3× bleached hair, 2 wt % aqueous solution pH 2, 15 min, heat styling, vs virgin hair): fully recovered to the virgin level | denaturation temperature ([1]; 3× bleached hair, PA at 2 wt % or higher concentration, vs virgin hair): recovered back to or even beyond the virgin level | hair denaturation temperature ([1]; ATG-reduced hair, blow dry, vs virgin hair): recovered to the level of virgin hair | hair denaturation temperature ([1]; colored 3× bleached hair, blow dry): recovers to the level of the virgin hair | recovery in Td ([1]; heat damaged hair (4 heat cycles), 2 wt % PA pH 4.5, 30 min, blow dry): 5 °C | immediate improvement in Td ([1]; treated after 1st bleach (Set II)): 3 °C | Td over 12 washing cycles and after 2nd bleach ([1]; treated after 1st bleach and 3rd, 6th, 9th, 12th wash, vs virgin level): remained above the virgin level | Td after 3 heating cycles ([1]; virgin hair treated before each heat treatment (flat iron 450° F.), heat control 7° C. decrease): same Td as virgin hair | change in Td upon 3 cycles of heat treatments ([1]; virgin hair with PA pre-treatment, heat protection): didn't show any significant change | reduction of protein loss ([2]; 3× bleached hair, vs untreated bleached hair (6.6 mg/g hair)): 27% | reduction of protein loss ([2]; ATG-reduced hair (7.9 mg/g hair untreated)): 58% | smooth fractures [3]: 38% | relative diameter swelling rate [4]: greatly reduced, even lower than virgin hair | hair tress area increase ([5]; 25° C., 30 min): much less area increase | difference in area increase after 7 shampoo and conditioner washing cycles [5]: remained significant | increase in water contact angle ([6]; 3× bleached hair, vs untreated bleached hair): 5 ° | increase in water contact angle ([6]; ATG-reduced hair): 5 ° | increase in water contact angle ([6]; colored hair): 5 ° | Young's modulus [7, 8]: greatly improved | break stress [7, 8]: greatly improved | PA concentration at which significant improvement in Young's modulus and break stress was achieved ([7]; 3× bleached hair, PA 0.1 to 20 wt %, 15 min, heat styling): ≥ 2 wt % | Young's modulus [7, 9]: significant increases | break stress [7, 9]: significant increases | Young's modulus [7, 10]: greatly improved | break stress [7, 10]: greatly improved | Young's modulus [7, 11]: greatly improved | break stress [7, 11]: greatly improved | Young's modulus [7, 12]: greatly improved | break stress [7, 12]: greatly improved
